Measurements reported in article PMC4172049 (Drug Design, Development and Therapy, 2014).

Target: T1, Human recombinant sPLA2-V (Homo sapiens, UniProt P39877)
T1 sequence (P39877 21-138): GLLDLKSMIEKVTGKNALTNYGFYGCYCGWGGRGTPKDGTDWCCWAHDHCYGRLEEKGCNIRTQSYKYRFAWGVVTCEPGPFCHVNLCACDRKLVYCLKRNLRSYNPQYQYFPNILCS
Test: sPLA2-V activity assay

Question: For `C[C@@H]1C[C@H]2[C@@H]3CCC4=CC(=O)C=C[C@]4(C)[C@@]3(F)[C@@H](O)C[C@]2(C)[C@@]1(O)C(=O)CO` [Dexamethasone], which IC50 is on record?
Answer: Its IC50 is 650 ± 150 nM.
